Data taken from patent US20220409775A1, “INJECTABLE HYDROGEL COMPOSITION HAVING ENDOGENOUS PROGENITOR OR STEM CELL RECRUITMENT AND INDUCTION OF VASCULAR DIFFERENTIATION OF RECRUITED CELLS” (Ajou University Industry-Academic Cooperation Foundation, priority 2019, published 2022).

What was measured:
[1] = test system: human-derived mesenchymal stem cells (hMSCs); test: SP's ability to recruit stem cells (trans well migration); type: cell-based
Protocol: First, human-derived mesenchymal stem cells (hMSCs) were labeled with PKH 26 dye (Sigma, USA) and then dispensed in the upper chamber (8.0 μm pore size) of a 24-well trans well plate (SPL, Korea) to be 5×10^4 cells. After culturing in the upper chamber for 48 hours using serum-free DMEM (Dubelco's modified eagle medium, Gibco, USA) medium, DMEM containing 1 μg/mL SP and 1% FBS (fetal bovine serum, Gibco, USA) was added to the bottom well, and the medium was replaced every 3 days, and the hMSCs that migrated to the bottom well were observed using a fluorescence microscope (Olympus, Japan). As a control group, DMEM (including 1% FBS) without SP was added to the bottom well and observed.

[2] = In vitro release of stem cell recruitment factor (SP) and VP from hydrogels; type: physicochemical; settings: physiological saline, 37° C., 100 rpm, 28 days; CHHA+SP and CHHA-VP+SP hydrogels
Protocol: First, an HA+VP solution was prepared by simply mixing VP with the HA solution prepared in Example 3 at a concentration of 320 μg/mL, and SP, which is a stem cell recruitment factor, was mixed with each of the HA solution and HA-VP solution at a concentration of 2 μg/mL to prepare an HA+SP solution and HA−VP+SP solution, respectively.
Next, 100 μL of the CH solution and 100 μL of the HA+VP solution were mixed in a vial to prepare 200 μL of a CHHA+VP hydrogel, and 100 μL of the CH solution and 100 μL of the HA-VP solution were mixed in a vial to prepare 200 μL of a CHHA-VP hydrogel.
In addition, 100 μL of the CH solution and 100 μL of HA+SP solution were mixed in a vial to prepare 200 μL of a CHHA+SP hydrogel, and 100 μL of the CH solution and 100 μL of the HA-VP+SP solution were mixed in a vial to prepare 200 μL of a CHHA-VP+SP hydrogel.
3 mL of a physiological saline was placed in each vial and stored in an incubator at 100 rpm and 37° C., and after taking 1 mL of the physiological saline from the vial at a predetermined time, 1 mL of a new physiological saline was added to the vial, and it was carried it out for 28 days to conduct a release experiment.

[3] = 1 μg/mL SP in bottom well, DMEM with 1% FBS

Question: With Substance P [SP] as the substance, how does the “Migration rate of hMSC” value [1, 3] read?
Answer: Its value is 1.9 × 10^3 cells/day.

Question: And the Rate constant [1, 3]?
Answer: The Rate constant was -0.49 day⁻¹.

Question: And the “cells migrated to the lower side” value ([1]; SP present compared with SP absent)?
Answer: The value was “more cells migrated to the lower side”.

Question: What about the Relative migration rate ([1]; SP relative to Cont (no SP)) of the same substance?
Answer: The Relative migration rate was 1.7.

Question: And the “release of SP from hydrogel” value [2]?
Answer: Its value is “release of SP occurred regardless of the chemical introduction of VP”.
